According to patent US6420377B1, “Covalent conjugates of topoisomerase I and topoisomerase II inhibitors” (priority 1997, dated 2002):

Assays:
KB-7d [1] = test: Cell growth inhibition, etoposide-resistant KB-7d cells; assay type: cell-based; conditions: KB7D, read-out: Cell Growth Inhibition IC50
Description: The KB oral carcinoma cell line was provided by M. Fisher (Pharmacology, UNC- Chapel Hill). The isolation and properties of the etoposide-resistant sub-clone, KB-7d, and the camptothecin-resistant line, KB-CPT100, were reported in P. Ferguson et al., Cancer Res. 48:5956 (1988) and D. Beidler et al., Cancer Res. 56:345 (1996), and are discussed briefly hereinafter. The vincristine-resistant sub-clone, KB-VIN20c was isolated by selection in 20 nM vincristine and over-expresses the P-glycoprotein multidrug-resistant drug-efflux protein (unpublished results).
All cell types were propagated in RPMI-1640 medium supplemented with 5% (v/v) fetal calf serum and 100 μg/mL kanamycin at 37° in a humidified atmosphere of 5% CO2 and 95% air. Over the course of the experiments, doubling times of cells were 24±4 hours.
Fifty thousand cells were plated in 25 cm^2 flasks (Falcon, N.J., USA) and incubated overnight. The medium was supplemented with test compounds at various concentrations and cultures were incubated for 48-51 hours (for about two cell doublings) before cells were trypsinized and then counted using a hemacytometer. The number of treated cells which excluded 0.5% (v/v) trypan blue were expressed as a percentage of the growth measured in control cultures. Compounds were evaluated in at least two independent experiments and the combined results were analyzed as scatter plots with dose-responses being computer fitted by linear regression at the 95% confidence level using Graphpad Software., San Diego, Calif. The IC50 concentrations which inhibited cell growth by fifty percent relative to control were interpolated from graphed results.

KB-7d [2] = test: Cytotoxicity measured as reduced plating efficiency, KB-7d cells; assay type: cell-based
Description: LC50 concentrations were determined by treating cells for three hours with different concentrations of compounds then replating cells to measure colony formation and plating efficiency as the percent of total cells forming colonies. Compounds were evaluated in three independent experiments. The plating efficiences of untreated cells varied between experiments with values ranging from 14-31% for KB, 31-56% for KB-7d, 16-38% for KB-VIN20c and 21-36% for KB-CPT100. A concentration of compound that reduced plating efficiency by fifty percent relative to control, the LC50, was determined graphically as stated in the preceding section.

[3] = molecular target: T1, calf thymus DNA topoisomerase I (Bos taurus, UniProt F1MN93); test: In vitro topoisomerase-DNA cleavage assay, topoisomerase I; assay type: biochemical
T1 construct: Calf thymus DNA topoisomerases were purchased from TopoGen Inc., Columbus, Ohio; purchased TopoGen Inc., Columbus, Ohio; host or cells: calf thymus (tissue-derived enzyme)
T1 sequence (F1MN93 1-767): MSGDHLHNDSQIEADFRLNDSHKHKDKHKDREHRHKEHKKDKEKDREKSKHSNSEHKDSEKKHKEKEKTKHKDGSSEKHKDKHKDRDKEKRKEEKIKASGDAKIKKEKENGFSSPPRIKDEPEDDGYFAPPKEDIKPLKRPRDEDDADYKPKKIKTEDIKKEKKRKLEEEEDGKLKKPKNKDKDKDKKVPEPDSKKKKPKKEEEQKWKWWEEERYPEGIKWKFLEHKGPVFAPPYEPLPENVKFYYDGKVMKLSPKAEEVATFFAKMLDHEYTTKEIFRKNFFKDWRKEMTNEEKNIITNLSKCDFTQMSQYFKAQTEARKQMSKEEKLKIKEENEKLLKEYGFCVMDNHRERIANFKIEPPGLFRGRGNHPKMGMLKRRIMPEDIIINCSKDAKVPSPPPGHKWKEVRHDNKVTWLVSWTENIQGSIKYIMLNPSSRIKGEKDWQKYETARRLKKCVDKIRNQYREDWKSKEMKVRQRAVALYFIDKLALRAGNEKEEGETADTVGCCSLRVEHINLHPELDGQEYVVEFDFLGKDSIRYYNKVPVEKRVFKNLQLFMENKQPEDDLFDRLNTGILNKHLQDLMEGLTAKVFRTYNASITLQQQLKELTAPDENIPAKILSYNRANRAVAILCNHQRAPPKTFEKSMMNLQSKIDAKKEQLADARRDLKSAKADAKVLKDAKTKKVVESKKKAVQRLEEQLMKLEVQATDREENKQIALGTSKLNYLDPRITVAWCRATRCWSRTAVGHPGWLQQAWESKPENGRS
Text: Calf thymus DNA topoisomerases were purchased from TopoGen Inc., Columbus, Ohio. Tritium-labeled thymidine (60-90 ci/mmol) for labeling cellular DNA to measure protein-DNA complexes and αP^32-labeled deoxycytidine triphosphate (>3000 ci/mmol) were obtained from ICN Biochemicals Inc., Irvine, Calif. The latter radiochemical was used with a T4-DNA polymerase polymerase-labeling system from BRL Inc., Gaithersburg, Md., to prepare P^32-plasmid DNA for in vitro cleavage assays. Tissue culture reagents were purchased from Sigma Chemical Co., St. Louis, Mo., and Gibco-BRL Inc. All other chemicals were reagent grade.
The detailed method used to measure stimulation of cleavable complexes in vitro is described in K. Bastow et al., Planta Med. 59:195 (1993).. Briefly, incubated cleavage reactions containing one nanogram of P^32 end-labeled linearized PBR322 DNA, one unit of enzyme and test compound were divided equally for analysis. One portion was prepared for gel electrophoresis with subsequent autoradiography and protein-DNA complexes in the remaining sample were analyzed using the potassium-SDS precipitation method and scintillation spectrometry.

SMILES: CC[C@@]1(O)C(=O)OCc2c1cc1n(c2=O)Cc2c-1nc1ccccc1c2/C=N/c1ccccc1N[C@@H]1c2cc3c(cc2[C@@H](c2cc(OC)c(O)c(OC)c2)[C@H]2C(=O)OC[C@@H]21)OCO3 [Compound S-2]
- IC50 (KB-7d [1]): 15 nM
- cross-resistance of KB-7d cells to cytotoxic action (KB-7d [2]): appeared cross-resistant
- IC50 (KB-7d [2]; KB7D, 3 h, read-out: Cytotoxicity Measured as Reduced Plating Efficiency IC50): > 15000 nM
- stimulation of topoisomerase I cleavage activity, dose behaviour ([3]; higher test concentrations): not inhibited at higher test concentrations
- cleavable complex formation with topoisomerase I ([3]; ten micromolar, FIG. 1A): induced cleavable complexes
- topoisomerase I cleavable complex activity relative to unconjugated components ([3]; ten micromolar, S-1 vs 3, 4a, S-2 vs 3, 4b): reduced about two-fold
